# Laboratory results as given in patent US10398788B2, “Polymer and contrast agent for photoacoustic imaging including the polymer” (CANON KABUSHIKI KAISHA, priority 2014, dated 2019).
# Tests used:
# [1] = background art; cited from earlier work
# [2] = Photo-fading under near-infrared pulse laser irradiation; assay type: physicochemical; settings: 4 irradiations
# Experimental: With respect to each of Cy7-PMPC (58 k) represented by the formula (47), 700DX-PMPC (57 k) represented by the formula (48), 800CW-PMPC (57 k) represented by the formula (49) and 800RS-PMPC (57 k) represented by the formula (50) obtained in Examples 22, 23, 24 and 25, respectively, and ICG-PMPC (48 k) represented by formula (46) described in Example 12, 2.0 mL of a sample was prepared in which the concentration of each dye-bound PMPC was adjusted so that the absorbance at the maximum absorption wavelength was 0.15. A sample of single ICG as Comparative Example was also prepared. Herein, the irradiation wavelength of near-infrared pulse laser light by use of the PAT apparatus and the excitation wavelength in fluorescence spectrum measurement were set to be the maximum absorption wavelengths of each dye-bound PMPC and ICG. Herein, the excitation wavelengths and the fluorescence emission wavelengths of each dye-bound PMPC and ICG were summarized in FIG. 16. The amount of near-infrared pulse laser light was set to be 8 to 9 mJ at each wavelength, and irradiation at 120 points (detector position) per 20 times was defined as one irradiation and such irradiation was performed at most four times. […] The resultant sample was placed in a 100-μL cuvette, subjected to fluorescence spectrum measurement (FP-6300 manufactured by JASCO Corporation), and studied with respect to photo-fading. […]
smiles,measurement,setting,value
"CC1(C)C(/C=C/C=C/C=C/C=C2/N(CCCCS(=O)(=O)[O-])c3ccc4ccccc4c3C2(C)C)=[N+](CCCCS(=O)(=O)[O-])c2ccc3ccccc3c21.[Na+] [ICG, indocyanine green]",Half-life in blood,[1],about several minutes
same,Photo-fading: normalized fluorescent intensity remaining after laser irradiation,[2],about 15%
